Measured values taken from patent publication US6737383B1, “Herbicidal oxadiazolidines” (priority 1999, dated 2004).

What was measured:
bedstraw = test: Test B pre/postemergence bedstraw; format: in vivo, Galium aparine
Summary of the method: (§1)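 Response is a visual 0-to-10 score relative to untreated plants, where 0 means no effect and 10 means complete control, taken twelve to sixteen days after application. Treatments went onto soil at planting and onto foliage of 1- to 4-leaf plants, using a surfactant-containing non-phytotoxic solvent.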

wild oat = test: Test B pre/postemergence wild oat; format: in vivo, Avena fatua; conditions: Preemergence
Summary of the method: as §1

duck salad = test: Test B flood test duck salad; format: in vivo, Heteranthera limosa
Summary of the method: (§2)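 Each value is a visual injury score relative to controls, with 10 meaning complete control and 0 no effect. Evaluation took place twelve to sixteen days after the 2-leaf-stage plants were treated and kept in the greenhouse.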

wheat = test: Test B pre/postemergence wheat; format: in vivo, Triticum aestivum; conditions: Preemergence
Summary of the method: as §1

surinam grass = test: Test B pre/postemergence surinam grass; format: in vivo, Brachiaria decumbens
Summary of the method: as §1

rape = test: Test B pre/postemergence rape; format: in vivo, Brassica napus
Summary of the method: as §1

giant foxtail = test: Test B pre/postemergence giant foxtail; format: in vivo, Setaria faberii
Summary of the method: as §1

purple nutsedge = test: Test B pre/postemergence purple nutsedge; format: in vivo, Cyperus rotundus; conditions: Postemergence
Summary of the method: as §1

blackgrass = test: Test B pre/postemergence blackgrass; format: in vivo, Alopecurus myosuroides
Summary of the method: as §1

morningglory = test: Test B pre/postemergence morningglory; format: in vivo, Ipomoea hederacea
Summary of the method: as §1

pigweed = test: Test B pre/postemergence pigweed; format: in vivo, Amaranthus retroflexus
Summary of the method: as §1

corn = test: Test B pre/postemergence corn; format: in vivo, Zea mays
Summary of the method: as §1

bamyardgrass = test: Test B flood test barnyardgrass; format: in vivo, Echinochloa crus-galli
Summary of the method: as §2

soybean = test: Test B pre/postemergence soybean; format: in vivo, Glycine max; conditions: Preemergence
Summary of the method: as §1

smallflower flatsedge = test: Test B flood test smallflower flatsedge; format: in vivo, Cyperus difformis
Summary of the method: as §2

cocklebur = test: Test B pre/postemergence cocklebur; format: in vivo, Xanthium strumarium
Summary of the method: as §1

sugar beet = test: Test B pre/postemergence sugar beet; format: in vivo, Beta vulgaris; conditions: Preemergence
Summary of the method: as §1

crabgrass = test: Test B pre/postemergence crabgrass; format: in vivo, Digitaria sanguinalis
Summary of the method: as §1

rice = test: Test B flood test rice; format: in vivo, Oryza sativa
Summary of the method: as §2

velvetleaf = test: Test B pre/postemergence velvetleaf; format: in vivo, Abutilon theophrasti; conditions: Preemergence
Summary of the method: as §1

[1] = Preemergence, Rate 31 g/ha, visual rating, scale 0 to 10 (0 no effect, 10 complete control)
[2] = Preemergence, Rate 62 g/ha, scale of 0 to 10 where 0 is no effect and 10 is complete control
[3] = Preemergence, Rate 250 g/ha, scale of 0 to 10 where 0 is no effect and 10 is complete control
[4] = Rate 31 g/ha, Postemergence, scale 0 to 10
[5] = Rate 62 g/ha, Postemergence, scale of 0 to 10 where 0 is no effect and 10 is complete control
[6] = Rate 125 g/ha, Postemergence, scale 0 to 10
[7] = Rate 125 g/ha, Preemergence, scale of 0 to 10 where 0 is no effect and 10 is complete control
[8] = Rate 31 g/ha, visual rating, scale 0 to 10 (0 no effect, 10 complete control)
[9] = Rate 62 g/ha, scale of 0 to 10 where 0 is no effect and 10 is complete control
[10] = Rate 250 g/ha, scale of 0 to 10 where 0 is no effect and 10 is complete control
[11] = Rate 125 g/ha, scale of 0 to 10 where 0 is no effect and 10 is complete control
[12] = Rate 62 g/ha, headed Pre-emergence (flood test species), scale 0 to 10 (0 no effect, 10 complete control)
[13] = Rate 125 g/ha, Pre-emergence, flood test species, scale 0 to 10 where 0 is no effect and 10 is complete control
[14] = Rate 250 g/ha, Pre-emergence, flood-test species, scale 0 to 10, 0 is no effect, 10 is complete control
[15] = Rate 500 g/ha, Pre-emergence, flood test species, scale 0 to 10 (0 no effect, 10 complete control)

## CCC(=O)Cn1c(=O)on(C(=O)N(c2ccc(F)cc2)C(C)C)c1=O [Compound 252]
bedstraw; [1]
  Bedstraw plant response rating: 0
bedstraw; [2]
  Bedstraw plant response rating: 0
bedstraw; [3]
  Bedstraw plant response rating: 0
bedstraw; [4]
  Bedstraw plant response rating: 0
bedstraw; [5]
  Bedstraw plant response rating: 0
bedstraw; [6]
  Bedstraw plant response rating: 0
bedstraw; [7]
  Bedstraw plant response rating: 0
bedstraw; Rate 250 g/ha, Postemergence
  Plant response rating (0 to 10; 0 is no effect, 10 is complete control), Bedstraw: 0
Wild oat; [8]
  Wild oats plant response rating: 0
Wild oat; [9]
  Wild oats plant response rating: 0
Wild oat; [10]
  Wild oats plant response rating: 3
Wild oat; [11]
  Wild oats plant response rating: 0
Duck salad; [12]
  Ducksalad plant response rating: 0
Duck salad; [13]
  Ducksalad plant response rating: 0
Duck salad; [14]
  Ducksalad plant response rating: 0
Duck salad; [15]
  Ducksalad plant response rating: 0
wheat; [8]
  Wheat plant response rating: 0
wheat; [9]
  Wheat plant response rating: 0
wheat; [10]
  Wheat plant response rating: 2
wheat; [11]
  Wheat plant response rating: 0
Surinam grass; [1]
  B. signalgrass plant response rating: 0
Surinam grass; [2]
  B. signalgrass plant response rating: 0
Surinam grass; [3]
  B. signalgrass plant response rating: 0
Surinam grass; [4]
  B. signalgrass plant response rating: 0
Surinam grass; [5]
  B. signalgrass plant response rating: 0
Surinam grass; Rate 125 g/ha, Postemergence, scale 0 (no effect) to 10 (complete control)
  B. signalgrass plant response rating: 0
Surinam grass; [7]
  B. signalgrass plant response rating: 0
Surinam grass; Rate 250 g/ha, Postemergence
  Plant response rating (0 to 10; 0 is no effect, 10 is complete control), B. signalgrass: 0
rape; [1]
  Rape plant response rating: 0
rape; [2]
  Rape plant response rating: 0
rape; [3]
  Rape plant response rating: 3
rape; [4]
  Rape plant response rating: 0
rape; [7]
  Rape plant response rating: 0
rape; Rate 250 g/ha, Postemergence
  Plant response rating (0 to 10; 0 is no effect, 10 is complete control), Rape: 0
Giant foxtail; [1]
  Giant foxtail plant response rating: 3
Giant foxtail; [2]
  Giant foxtail plant response rating: 3
Giant foxtail; [3]
  Giant foxtail plant response rating: 10
Giant foxtail; [4]
  Giant foxtail plant response rating: 0
Giant foxtail; [7]
  Giant foxtail plant response rating: 9
Giant foxtail; Rate 250 g/ha, Postemergence
  Plant response rating (0 to 10; 0 is no effect, 10 is complete control), Giant foxtail: 4
Purple nutsedge; Rate 31 g/ha, scale 0 to 10
  Nutsedge plant response rating: 0
Purple nutsedge; Rate 250 g/ha
  Plant response rating (0 to 10; 0 is no effect, 10 is complete control), Nutsedge: 0
blackgrass; [1]
  Blackgrass plant response rating: 0
blackgrass; [2]
  Blackgrass plant response rating: 0
blackgrass; [3]
  Blackgrass plant response rating: 4
blackgrass; [4]
  Blackgrass plant response rating: 0
blackgrass; [5]
  Blackgrass plant response rating: 0
blackgrass; [6]
  Blackgrass plant response rating: 2
blackgrass; [7]
  Blackgrass plant response rating: 2
blackgrass; Rate 250 g/ha, Postemergence
  Plant response rating (0 to 10; 0 is no effect, 10 is complete control), Blackgrass: 5
morningglory; [1]
  Morningglory plant response rating: 0
morningglory; [2]
  Morningglory plant response rating: 0
morningglory; [3]
  Morningglory plant response rating: 0
morningglory; [4]
  Morningglory plant response rating: 2
morningglory; [7]
  Morningglory plant response rating: 0
morningglory; Rate 250 g/ha, Postemergence
  Plant response rating (0 to 10; 0 is no effect, 10 is complete control), Morningglory: 3
pigweed; [1]
  Redroot pigweed plant response rating: 0
pigweed; [2]
  Redroot pigweed plant response rating: 0
pigweed; [3]
  Redroot pigweed plant response rating: 0
pigweed; [4]
  Redroot pigweed plant response rating: 0
pigweed; [7]
  Redroot pigweed plant response rating: 0
pigweed; Rate 250 g/ha, Postemergence
  Plant response rating (0 to 10; 0 is no effect, 10 is complete control), Redroot pigweed: 0
corn; [1]
  Corn plant response rating: 0
corn; [2]
  Corn plant response rating: 0
corn; [3]
  Corn plant response rating: 0
corn; [4]
  Corn plant response rating: 0
corn; [5]
  Corn plant response rating: 0
corn; [6]
  Corn plant response rating: 0
corn; [7]
  Corn plant response rating: 0
corn; Rate 250 g/ha, Postemergence
  Plant response rating (0 to 10; 0 is no effect, 10 is complete control), Corn: 0
bamyardgrass; [12]
  Barnyardgrass plant response rating: 0
bamyardgrass; [13]
  Barnyardgrass plant response rating: 0
bamyardgrass; [14]
  Barnyardgrass plant response rating: 0
bamyardgrass; [15]
  Barnyardgrass plant response rating: 0
soybean; [8]
  Soybean plant response rating: 0
soybean; [9]
  Soybean plant response rating: 0
soybean; [10]
  Soybean plant response rating: 0
soybean; [11]
  Soybean plant response rating: 0
Smallflower flatsedge; [12]
  S. Flatsedge plant response rating: 0
Smallflower flatsedge; [13]
  S. Flatsedge plant response rating: 0
Smallflower flatsedge; [14]
  S. Flatsedge plant response rating: 0
Smallflower flatsedge; [15]
  S. Flatsedge plant response rating: 0
cocklebur; [1]
  Cocklebur plant response rating: 0
cocklebur; [2]
  Cocklebur plant response rating: 0
cocklebur; [4]
  Cocklebur plant response rating: 0
cocklebur; [5]
  Cocklebur plant response rating: 0
cocklebur; [6]
  Cocklebur plant response rating: 0
cocklebur; [7]
  Cocklebur plant response rating: 0
cocklebur; Rate 250 g/ha, Postemergence
  Plant response rating (0 to 10; 0 is no effect, 10 is complete control), Cocklebur: 0
Sugar beet; [8]
  Sugarbeets plant response rating: 0
Sugar beet; [9]
  Sugarbeets plant response rating: 0
Sugar beet; [10]
  Sugarbeets plant response rating: 3
Sugar beet; [11]
  Sugarbeets plant response rating: 3
crabgrass; [1]
  Crabgrass plant response rating: 0
crabgrass; [2]
  Crabgrass plant response rating: 0
crabgrass; [3]
  Crabgrass plant response rating: 4
crabgrass; [4]
  Crabgrass plant response rating: 0
crabgrass; [7]
  Crabgrass plant response rating: 2
crabgrass; Rate 250 g/ha, Postemergence
  Plant response rating (0 to 10; 0 is no effect, 10 is complete control), Crabgrass: 6
rice; [12]
  Rice plant response rating: 0
rice; [13]
  Rice plant response rating: 0
rice; [14]
  Rice plant response rating: 0
rice; [15]
  Rice plant response rating: 0
velvetleaf; [8]
  Velvetleaf plant response rating: 0
velvetleaf; [9]
  Velvetleaf plant response rating: 0
velvetleaf; [10]
  Velvetleaf plant response rating: 2
velvetleaf; [11]
  Velvetleaf plant response rating: 0
